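All cell lines were grown in 96-well plates and treated with compound for 48 hours. GI50 is the concentration that inhibits growth by half. TGI is the concentration that stops growth completely.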
Key:
Experiment in all cases: DTP human tumour cell line panel, 48 h
786-0 renal = test system: 786-0 renal
A498 renal = test system: A498 renal
A549 NSCLC = test system: A549 NSCLC
ACHN renal = test system: ACHN renal
BT-549 breast = test system: BT-549 breast
CAKI-1 renal = test system: CAKI-1 renal
CCRF-CEM leukemia = test system: CCRF-CEM leukemia
COLO 205 colon = test system: COLO 205 colon
DU-145 prostate = test system: DU-145 prostate
EKVX NSCLC = test system: EKVX NSCLC
HCC-2998 colon = test system: HCC-2998 colon
HCT-116 colon = test system: HCT-116 colon
HCT-15 colon = test system: HCT-15 colon
HL-60(TB) leukemia = test system: HL-60(TB) leukemia
HOP-62 NSCLC = test system: HOP-62 NSCLC
HOP-92 NSCLC = test system: HOP-92 NSCLC
HS 578T breast = test system: HS 578T breast
HT29 colon = test system: HT29 colon
IGROV1 ovarian = test system: IGROV1 ovarian
K-562 leukemia = test system: K-562 leukemia
KM12 colon = test system: KM12 colon
LOX IMVI melanoma = test system: LOX IMVI melanoma
M14 melanoma = test system: M14 melanoma
MALME-3M melanoma = test system: MALME-3M melanoma
MCF7 breast = test system: MCF7 breast
MDA-MB-231 breast = test system: MDA-MB-231 breast
MDA-MB-435 = test system: MDA-MB-435
MOLT-4 leukemia = test system: MOLT-4 leukemia
NCI-H226 lung = test system: NCI-H226 lung
NCI-H23 lung = test system: NCI-H23 lung
NCI-H460 lung = test system: NCI-H460 lung
NCI-H522 lung = test system: NCI-H522 lung
NCI/ADR-RES ovarian = test system: NCI/ADR-RES ovarian
OVCAR-3 ovarian = test system: OVCAR-3 ovarian
OVCAR-4 ovarian = test system: OVCAR-4 ovarian
OVCAR-5 ovarian = test system: OVCAR-5 ovarian
OVCAR-8 ovarian = test system: OVCAR-8 ovarian
PC-3 prostate = test system: PC-3 prostate
RPMI-8226 leukemia = test system: RPMI-8226 leukemia
RXF 393 renal = test system: RXF 393 renal
SF-268 CNS = test system: SF-268 CNS
SF-295 CNS = test system: SF-295 CNS
SF-539 CNS = test system: SF-539 CNS
SK-MEL-2 melanoma = test system: SK-MEL-2 melanoma
SK-MEL-28 melanoma = test system: SK-MEL-28 melanoma
SK-MEL-5 melanoma = test system: SK-MEL-5 melanoma
SK-OV-3 ovarian = test system: SK-OV-3 ovarian
SN12C renal = test system: SN12C renal
SNB-19 CNS = test system: SNB-19 CNS
SNB-75 CNS = test system: SNB-75 CNS
SR leukemia = test system: SR leukemia
SW-620 colon = test system: SW-620 colon
T-47D breast = test system: T-47D breast
TK-10 renal = test system: TK-10 renal
U251 CNS = test system: U251 CNS
UACC-257 melanoma = test system: UACC-257 melanoma
UACC-62 melanoma = test system: UACC-62 melanoma
UO-31 renal = test system: UO-31 renal

Compound `NS(=O)(=O)c1cccc(-c2cc3ccncc3cc2OCc2ccccc2)c1` has a GI50 (786-0 renal) of 7.37 µM, a TGI (786-0 renal) of over 20.7 µM and a GI50 (A498 renal) of 2.17 µM. The TGI (A498 renal) was 13 µM, the GI50 (A549 NSCLC) was 10.3 µM and the TGI (A549 NSCLC) was over 25 µM. For the same compound, the GI50 (ACHN renal) was 8.14 µM, the TGI (ACHN renal) was over 25 µM and the GI50 (BT-549 breast) was 7.65 µM. For the same compound, the TGI (BT-549 breast) was over 25 µM, the GI50 (CAKI-1 renal) was 10.6 µM and the TGI (CAKI-1 renal) was over 25 µM. It also gave a GI50 (CCRF-CEM leukemia) of 8.43 µM, a TGI (CCRF-CEM leukemia) of over 25 µM and a GI50 (COLO 205 colon) of 10.7 µM. The TGI (COLO 205 colon) was over 25 µM, the GI50 (DU-145 prostate) was 17.1 µM and the TGI (DU-145 prostate) was over 25 µM. The GI50 (EKVX NSCLC) was 9.67 µM, the TGI (EKVX NSCLC) was over 25 µM and the GI50 (HCC-2998 colon) was 15.2 µM. The TGI (HCC-2998 colon) was over 25 µM, the GI50 (HCT-116 colon) was 10.1 µM and the TGI (HCT-116 colon) was over 25 µM. The GI50 (HCT-15 colon) was 7.67 µM, the TGI (HCT-15 colon) was over 25 µM and the GI50 (HL-60(TB) leukemia) was 4.64 µM. For the same compound, the TGI (HL-60(TB) leukemia) was 13.5 µM, the GI50 (HOP-62 NSCLC) was 11.6 µM and the TGI (HOP-62 NSCLC) was over 25 µM. It also gave a GI50 (HOP-92 NSCLC) of 4.39 µM, a TGI (HOP-92 NSCLC) of over 25 µM and a GI50 (HS 578T breast) of 4.2 µM. The TGI (HS 578T breast) was over 18.4 µM, the GI50 (HT29 colon) was 6.05 µM and the TGI (HT29 colon) was 16.8 µM. The GI50 (IGROV1 ovarian) was over 20.7 µM, the TGI (IGROV1 ovarian) was over 25 µM and the GI50 (K-562 leukemia) was 6.61 µM. The TGI (K-562 leukemia) was over 25 µM, the GI50 (KM12 colon) was 10.7 µM and the TGI (KM12 colon) was over 25 µM. It also gave a GI50 (LOX IMVI melanoma) of 12.4 µM, a TGI (LOX IMVI melanoma) of over 25 µM and a GI50 (M14 melanoma) of 14.5 µM. For the same compound, the TGI (M14 melanoma) was over 25 µM, the GI50 (MALME-3M melanoma) was 14.7 µM and the TGI (MALME-3M melanoma) was over 25 µM. It also gave a GI50 (MCF7 breast) of 10.5 µM, a TGI (MCF7 breast) of over 25 µM and a GI50 (MDA-MB-231 breast) of 7.37 µM. The TGI (MDA-MB-231 breast) was over 23.9 µM, the GI50 (MDA-MB-435) was 12.7 µM and the TGI (MDA-MB-435) was over 25 µM. It also gave a GI50 (MOLT-4 leukemia) of 8.44 µM, a TGI (MOLT-4 leukemia) of over 25 µM and a GI50 (NCI-H226 lung) of 9.03 µM. For the same compound, the TGI (NCI-H226 lung) was over 25 µM, the GI50 (NCI-H23 lung) was over 18.4 µM and the TGI (NCI-H23 lung) was over 25 µM. The GI50 (NCI-H460 lung) was 11.7 µM, the TGI (NCI-H460 lung) was over 25 µM and the GI50 (NCI-H522 lung) was 13.5 µM. The TGI (NCI-H522 lung) was over 25 µM, the GI50 (NCI/ADR-RES ovarian) was 11.2 µM and the TGI (NCI/ADR-RES ovarian) was over 25 µM. It also gave a GI50 (OVCAR-3 ovarian) of 10.9 µM, a TGI (OVCAR-3 ovarian) of over 25 µM and a GI50 (OVCAR-4 ovarian) of 11.5 µM. It also gave a TGI (OVCAR-4 ovarian) of over 25 µM, a GI50 (OVCAR-5 ovarian) of 14.8 µM and a TGI (OVCAR-5 ovarian) of over 25 µM. For the same compound, the GI50 (OVCAR-8 ovarian) was 10.1 µM, the TGI (OVCAR-8 ovarian) was over 25 µM and the GI50 (PC-3 prostate) was 10.8 µM. The TGI (PC-3 prostate) was over 25 µM, the GI50 (RPMI-8226 leukemia) was 6.66 µM and the TGI (RPMI-8226 leukemia) was over 25 µM. It also gave a GI50 (RXF 393 renal) of 4.96 µM, a TGI (RXF 393 renal) of over 21.8 µM and a GI50 (SF-268 CNS) of 14.5 µM. For the same compound, the TGI (SF-268 CNS) was over 25 µM, the GI50 (SF-295 CNS) was 6.55 µM and the TGI (SF-295 CNS) was over 17.7 µM. It also gave a GI50 (SF-539 CNS) of 8.62 µM, a TGI (SF-539 CNS) of over 25 µM and a GI50 (SK-MEL-2 melanoma) of 7.43 µM. The TGI (SK-MEL-2 melanoma) was over 19.6 µM, the GI50 (SK-MEL-28 melanoma) was 5.85 µM and the TGI (SK-MEL-28 melanoma) was over 25 µM. It also gave a GI50 (SK-MEL-5 melanoma) of 4.83 µM, a TGI (SK-MEL-5 melanoma) of over 15.8 µM and a GI50 (SK-OV-3 ovarian) of over 18.5 µM. The TGI (SK-OV-3 ovarian) was over 25 µM, the GI50 (SN12C renal) was 14.5 µM and the TGI (SN12C renal) was over 25 µM. For the same compound, the GI50 (SNB-19 CNS) was 19.1 µM, the TGI (SNB-19 CNS) was over 25 µM and the GI50 (SNB-75 CNS) was 3.23 µM. It also gave a TGI (SNB-75 CNS) of over 25 µM, a GI50 (SR leukemia) of 11.6 µM and a TGI (SR leukemia) of over 25 µM. It also gave a GI50 (SW-620 colon) of 9.92 µM, a TGI (SW-620 colon) of over 25 µM and a GI50 (T-47D breast) of 12.7 µM. It also gave a TGI (T-47D breast) of over 25 µM, a GI50 (TK-10 renal) of 9.77 µM and a TGI (TK-10 renal) of over 25 µM. It also gave a GI50 (U251 CNS) of 13 µM, a TGI (U251 CNS) of over 25 µM and a GI50 (UACC-257 melanoma) of 7.76 µM. For the same compound, the TGI (UACC-257 melanoma) was over 25 µM, the GI50 (UACC-62 melanoma) was 9.76 µM and the TGI (UACC-62 melanoma) was over 25 µM. For the same compound, the GI50 (UO-31 renal) was 5.76 µM and the TGI (UO-31 renal) was over 21.4 µM.

Source: PubChem BioAssay (NCI)
